Patent US20090197279A1, “MICROTUBULE SYNTHESIS AS A BIOMARKER” (KINEMED, INC., priority 2005, published 2009)
Entries after “also recorded” stand apart in the source; their conditions may differ.

Tests used:
[1] = test system: hippocampal tubulin dimers and microtubule subsets; assay: 2H label incorporation into hippocampal tubulin dimers and microtubule subsets during CFC (GC/MS); assay type: in vivo, mouse; conditions: conditioned mice, hippocampus
Text: FIG. 10 depicts microtubule/tubulin exchange during hippocampus-dependent contextual memory. (A) Protocol for measurement of microtubule/tubulin exchange during contextual fear conditioning (CFC). Tubulin dimers and microtubules subsets were labeled to plateau through continuous ^2H2O labeling, starting one day before CFC training. Labeling was continued throughout CFC training (Day 2) and the contextual conditioning test until mice were euthanized (Day 3). Vehicle or nocodazole treated-mice were injected 4 hours before CFC training, consisting of three pairings of conditioned and unconditioned stimuli inside an observation chamber, as described in Example 7 below. (B) CFC experiments were conducted in groups of naïve, vehicle- (50% cyclodextrin) and nocodazole-treated (0.2 mg/kg) mice (mean±SD, n=8 per each group), respectively. […] (C-E) ^2H label incorporation into hippocampal tubulin dimers and microtubule subsets was compared at sacrifice in the indicated experimental groups. Microtubule subpopulations were fractionated as described below, and the percentage of newly synthesized tubulin was quantified by GC/MS (mean±SD, n=3). (C) and (D) In vehicle-CFC trained mice, the increased freezing response corresponded with an increase in ^2H labeling of MAP2- and CS-associated MTs, compared to naïve control animals (§p<0.01 and §§p<0.05; two-way ANOVA). […] In (C-E), bars represent % new tubulin (mean±SD, n=3).
Tubulin was purified using minor modifications of protocols described previously (Fanara, P., Oback, B., Ashman, K., Podtelejnikov, A., Brandt, R. Identification of MINUS, a small polypeptide that functions as a microtubule nucleation suppressor. EMBO J. 18, 565-577 (1999); Fanara, P. et al. In vivo measurement of microtubule dynamics using stable isotope labeling with heavy water. Effect of taxanes. J. Biol. Chem. 279, 49940-49947 (2004). Briefly, cultured neurons were gently scraped off culture plates, washed in phosphate-buffered saline (PBS), and homogenized in microtubule-stabilizing buffer. For purification ex vivo, mice were anesthetized with isoflurane and euthanized by cervical dislocation. Brains were rapidly removed and washed in microtubule-stabilizing buffer (MSB); hippocampi were dissected and gently homogenized in MSB. […] The relative abundance of tubulin in each preparation (Tubulin dimers and TAU5-bound, MAP2-bound, and unbound microtubule fractions) was quantified by Western blot, and tubulin from these fractions was further purified by ion exchange and size exclusion chromatography, as previously described (Fanara, P. et al. In vivo measurement of microtubule dynamics using stable isotope labeling with heavy water. Effect of taxanes. J. Biol. Chem. 279, 49940-49947 (2004)). […]

[2] = test system: hippocampal tubulin dimers and tau-associated, tau-nonassociated (MAP2/STOP) and cold-stable microtubules; assay: 2H label incorporation into hippocampal tubulin dimers and microtubule fractions after ICVC infusion (2H2O labeling, GC/MS); assay type: in vivo, mouse; conditions: for label incorporation into new MAP2/STOP-MTs: vs water
Description: In (A) and (B), mice received ICVC infusions of 6 μl water alone or containing 0.48 nmol glutamate (80 μM in the infusate), or glutamate plus 0.66 pmol Rp-cAMP (110 nM in the infusate). Animals were then labeled with ^2H2O for 8 hours (A) or 24 hours (B). At sacrifice, the hippocampal post-nuclear supernatant was fractionated as show in FIG. 5A; a separate aliquot was used for isolation of cold stable (CS) MTs (FIG. 5D). Glutamate injection stimulated label incorporation into new MAP2/STOP-MTs at 8 and 24 hours, and CS MTs at 24 hours; both were blocked by Rp-cAMP. In order to correct the effects of pharmacologic intervention on MT dynamics for the confounding changes in tubulin synthesis, the numbers above each bar express ^2H label incorporation into MT as a percentage of ^2H labeling in the corresponding tubulin dimer fractions. (C) Dose dependence of glutamate effects. ^2H2O labeling was initiated at time zero, 6 μl ICVC infusions with the indicated concentrations of glutamate were performed at 24 hours, and labeling was continued until sacrifice at 48 hours (24 hours post glutamate infusion). Hippocampal MTs were fractionated into tau-associated, MAP2-associated, and non-associated (STOP-associated) MT fractions, as in FIG. 5A. In all experiments, bars represent % new tubulin (mean±SD, n=3).
Tubulin was purified using minor modifications of protocols described previously (Fanara, P., Oback, B., Ashman, K., Podtelejnikov, A., Brandt, R. Identification of MINUS, a small polypeptide that functions as a microtubule nucleation suppressor. EMBO J. 18, 565-577 (1999); Fanara, P. et al. In vivo measurement of microtubule dynamics using stable isotope labeling with heavy water. Effect of taxanes. J. Biol. Chem. 279, 49940-49947 (2004). Briefly, cultured neurons were gently scraped off culture plates, washed in phosphate-buffered saline (PBS), and homogenized in microtubule-stabilizing buffer. For purification ex vivo, mice were anesthetized with isoflurane and euthanized by cervical dislocation. Brains were rapidly removed and washed in microtubule-stabilizing buffer (MSB); hippocampi were dissected and gently homogenized in MSB. To separate cytosolic tubulin dimers from microtubule polymers, post-nuclear supernatants were centrifuged at 190,000×g at 20° C. for 35 min. The supernatant or non-microtubule fraction (containing the soluble dimeric tubulin) was separated from the pellet or microtubule fraction (containing polymeric tubulin), quick-frozen and stored at −20° C. Microtubule pellets were further fractionated by sequential immunoaffinity chromatography steps (FIG. 3). In order to isolate tau-associated microtubules, TAU5 antibody was covalently coupled to epoxy-activated Sepharose beads (Amersham Pharmacia Biotech) at a concentration of 0.25 mg/ml. Approximately 0.2 mg of the microtubule pellet was incubated with TAU-5 beads in 0.5 ml MSB for 1 hour at room temperature. Unbound material was removed, the beads were washed three times in 0.5 ml of MSB, and bound material was eluted in 0.5 ml MSB containing 1M NaCl. In some experiments, MAP2-associated microtubules were captured from the TAU5-unbound material by immunoaffinity chromatography on epoxy-activated Sepharose beads coupled to MAP2 antibody (0.5 mg antibody per ml beads) using the same protocol. The relative abundance of tubulin in each preparation (Tubulin dimers and TAU5-bound, MAP2-bound, and unbound microtubule fractions) was quantified by Western blot, and tubulin from these fractions was further purified by ion exchange and size exclusion chromatography, as previously described (Fanara, P. et al. In vivo measurement of microtubule dynamics using stable isotope labeling with heavy water. Effect of taxanes. J. Biol. Chem. 279, 49940-49947 (2004)). […]

[3] = dose-dependence experiment, 24 hours post stimulation

`COC(=O)Nc1nc2ccc(C(=O)c3cccs3)cc2[nH]1` [nocodazole] was tested, and the “label incorporation into tau-associated microtubules” value ([1]; nocodazole 0.2 mg/kg vs basal levels in naïve and conditioned animals) was “reduced; also recorded: significant disassembly”, the “2H incorporation into free tubulin dimers” value ([1]; nocodazole 0.2 mg/kg vs vehicle-treated controls) was “increase” and the “label incorporation into MAP2-associated microtubules” value ([1]; nocodazole 0.2 mg/kg vs vehicle) was “reversed; also recorded: significant disassembly”. For the same compound, the “reduction of label incorporation into CS microtubules” value ([1]; nocodazole 0.2 mg/kg) was “not statistically significant”.

With `N[C@@H](CCC(=O)[O-])C(=O)[O-].[K+].[K+]` [glutamate, potassium L-glutamate] the “label incorporation into new MAP2/STOP-MTs” value ([2]; 0.48 nmol glutamate ICVC, 2H2O labeling 8 hours) was “stimulated”, the “label incorporation into new MAP2/STOP-MTs” value ([2]; 0.48 nmol glutamate ICVC, 2H2O labeling 24 hours) was “stimulated” and the “fractional synthesis of tubulin dimers” value ([2]; 0.48 nmol glutamate ICVC, 8 and 24 hours labeling, vs controls) was “somewhat enhanced”. For the same compound, the “tau-nonassociated microtubules exchanged with free tubulin” value ([2]; 0.48 nmol glutamate ICVC, 8 hours) was “ca. 80%”, the “labeling of cold-stable (axonal shaft) microtubules” value ([2]; 0.48 nmol glutamate ICVC, 8 hours, vs controls) was “indistinguishable from controls” and the “tau-nonassociated microtubules exchanged with free tubulin” value ([2]; 0.48 nmol glutamate ICVC, 24 hours) was “ca. 80%”. For the same compound, the “cold-stable microtubules equilibrated with free tubulin” value ([2]; 0.48 nmol glutamate ICVC, 24 hours, MT label as percentage of tubulin dimer label) was “about 40%”, the “label incorporation into cold stable (CS) MTs” value ([2]; 0.48 nmol glutamate ICVC, 24 hours, vs controls) was “increased” and the “label incorporation into cold stable (CS) MTs” value ([2]; 0.48 nmol glutamate ICVC, 24 hours, vs controls, listed as Glutamate) was “stimulated”. The “exchange of tau-associated microtubules with tubulin dimers” value ([2]; 8 hours after stimulation with glutamate) was “highly exchanged”, the “dynamics of tau-associated microtubules” value ([2]; 24 hours after stimulation with glutamate, vs controls) was “less dynamic than controls” and the fractional tubulin synthesis ([2]; dose-dependence experiment: 2H2O started 24 hours before varying amounts of glutamate, sacrifice 24 hours post infusion) was “at most slight effects”. For the same compound, the “decreased label incorporation in tau-associated microtubules” value [2, 3] was “glutamate-dose dependent” and the “increased tubulin incorporation into dendritic and axonal shaft microtubules” value [2, 3] was “glutamate-dose dependent”.
